Measured values taken from US20050244335A1, “Methods and compositions related to increasing antitumor activity of chemotherapeutic agents” (priority 2004, published 2005).
Like-named read-outs stand apart in the source and are kept apart here.

Legend:
[1] = system: CD-1 mice
Description: sing a protocol similar to the above survival study, the effects of DEX on chemotherapy-induced bone marrow toxicity were studied in male CD-1 mice. DEX (s.c., 0.1 mg/mouse/day for 5 days) was given prior to (day −4-0) or after (day 0 to 4) a single i.p. dose of carboplatin (600 mg/m^2 or 200 mg/kg). On days −4, 0, 3, 7, 14, peripheral blood samples (60 μL) were obtained from postorbital venous plexus using a microcapillary tube coated with 5% ethylenediaminetetraacetic acid and cell counts were obtained using a Coulter counter. Wright's stained peripheral blood smears were examined by light microscopy and the percentage of lymphocytes, granulocytes and monocytes were recorded.
(§1) The significance of the differences among treated groups and controls were analyzed by ANOVA.
To examine possible mechanisms responsible for reduced mortality in mice pre-treated with DEX, peripheral blood counts before and after chemotherapy were determined. […] The same experimental design was used to examine the dose-schedule effects of dexamethasone prevention of neutropenia.

[2] = system: NSCLC patients; assay: Clinical trial of Dex pretreatment with carboplatin and gemcitabine in stage 4 NSCLC patients; format: in vivo, human; conditions: for AGC nadir ratio (course 2 ÷ course 1), M±SE: 4 days prior to and day of chemotherapy
Description: Patients were randomized at a 1:2:2 ratio to receive no Dex (Cohort 1), or Dex 8 mg bid (Cohort 2) or 16 mg bid (Cohort 3), 4 days prior to and the day of each chemotherapy treatment. Dex was given only in courses 2, 3, and 4 so that toxicities between course 1 vs. course 2 comparisons could be made.

[3] = system: human cancer xenografts; assay: Six murine-human cancer xenograft models overall: efficacy and toxicity
Description: (§4) Human cancer xenograft models were established using the methods reported previously (26-29). When confluence reached 80%, cultured LS174T, MCF-7, MDA-MB-468, U87-MG, A549 and H1299 cells were harvested from the monolayer cultures, washed with the above indicated serum-free medium and resuspended in the same medium with Matrigel® basement membrane matrix at a 3:1 ratio, and then injected subcutaneously (s.c.) (5×10^6 cells, total volume 0.2 mL) into the left inguinal area of the nude mice. The animals were monitored for activity, physical condition, determination of body weight, and measurement of tumor growth. Tumor growth was determined by caliper measurement in two perpendicular diameters of the implant every other day. Tumor weight (in g) was calculated by the formula, 1/2a×b^2 where “a” is the long diameter and “b” is the short diameter (in cm).
(§5) Nude mice bearing human cancer xenografts were randomly divided into various treatment and control groups (5 mice/group). In treatment groups, animals were pre-treated with DEX subcutaneously (s.c., 0.1 mg/day for 5 days, Day −4-0) or saline (as controls). Carboplatin was administered intraperitoneally (i.p.) at a single dose of 120 mg/kg (360 mg/m^2) on day 0.
(§6) The antitumor activity (tumor mass) and peripheral blood counts were expressed as mean and standard deviations and the significance of differences were analyzed by ANOVA.
(§7) When mean tumor mass reached 44-68 mg, animals were treated with s.c. DEX at a dose of 0.1 mg/day for 5 days, followed by chemotherapy.

[4] = system: human lung cancer H1299 xenografts; assay: In vivo chemotherapy, lung cancer H1299 xenograft model in nude mice
Description: (§2) Cell Culture. […] All media contained 1% penicillin-streptomycin.
(§3) Data and Statistical Analysis.

[5] = system: human lung cancer A549 xenografts; conditions: A549 model
Description: as §2, §3

[6] = system: human colon cancer LS174T xenografts; assay: In vivo chemotherapy, colon cancer LS174T xenograft model in nude mice; conditions: DEX s.c. 0.1 mg/day 5 days, carboplatin 120 mg/kg i.p. day 0
Description: as §2, §3

[7] = system: CD-1 mice; format: in vivo; conditions: for survival rate: carboplatin 600 mg/m^2 (200 mg/kg) i.p., 14-day
Description: Male CD-1 mice, randomly divided into multiple treatment and control groups (10 mice/group), were given DEX by subcutaneous (s.c.) injection at doses of 0.01, 0.05, 0.1, 0.3 mg/mouse/day or saline (as controls) for 5 days prior to (day −4 to 0) or after (day 0 to 4) a single intraperitoneal (i.p.) injection of carboplatin (600 mg/m^2 or 200 mg/kg) on day 0. Animals were monitored daily for activity, physical condition, body weight and 14-day survival rates.
as §1

[8] = system: human cancer xenografts; conditions: in vivo
Description: as §4, §5, §6, §7

[9] = system: human glioma U87-MG xenografts; conditions: U87MG model
Description: Cell Culture. The cell lines of human cancers (colon LS174T, breast MCF-7 and MDA-MB-468, and lung A549) and glioma (U87-MG) were obtained from American Type Culture Collection (Rockville, Md.) and cultured according to their instruction. LS174T cells were cultured in modified Earle's medium with 0.1 mM nonessential amino acids and Earle's balanced salt solution containing 10% FBS. MCF-7 cells were grown in modified Earle's medium containing 10% FBS, 1 mM non-essential amino acids and Earle's balanced salt solution, 1 mM sodium pyruvate and 10 mg/L bovine insulin. MDA-MB-468 cells were grown in Dulbecco's modified Eagle's/F-12 Ham's medium (1:1 mixture) containing 10% FBS. […]
Animal Tumor Models. […] The animals were monitored for activity, physical condition, determination of body weight, and measurement of tumor growth. Tumor growth was determined by caliper measurement in two perpendicular diameters of the implant every other day. Tumor weight (in g) was calculated by the formula, 1/2a×b^2 where “a” is the long diameter and “b” is the short diameter (in cm). […]
Data and Statistical Analysis. The antitumor activity (tumor mass) and peripheral blood counts were expressed as mean and standard deviations and the significance of differences were analyzed by ANOVA. […]

[10] = system: human breast cancer MCF-7 xenografts; assay: In vivo chemotherapy, breast cancer MCF-7 xenograft model in nude mice; conditions: MCF-7 model
Description: as §2, §3

[11] = Pharmacokinetics and tissue distribution of gemcitabine in CD-1 mice; format: in vivo; conditions: gemcitabine 160 mg/kg iv
Description: At various times (5, 15, and 30 min, 1, 2, 4, 8, and 24 hr after drug dosing), plasma, bone marrow, and tissues including liver, kidneys, heart, lungs, spleen, brain and tumor were collected and treated as described above.
In brief, plasma samples (50 μL) were mixed with […] of scintillation solvent (Beckman) to determine total radioactivity. Tissue homogenates (50-200 μL) were mixed with 200 μL solubilizer (TS-2) overnight, neutralized with 400 μL of 0.3% acetic acid, and then mixed with scintillation solvent (5 mL) to quantitate the total radioactivity.
as §1

[12] = Pharmacokinetics of gemcitabine in nude mice bearing H1299 xenografts; format: in vivo; conditions: for AUC / CL / Cmax / Vss: nude mice bearing H1299 xenografts, gemcitabine 160 mg/kg iv
Description: Female nude mice bearing human lung cancer H1299 xenograft were used (3 mice for each time point). […] Bone marrow cells were harvested by using the same method described above. […] In brief, plasma samples (50 μL) were mixed with 5 mL of scintillation solvent (Beckman) to determine total radioactivity. […] Data and Statistical Analysis.

For `C[C@@H]1C[C@H]2[C@@H]3CCC4=CC(=O)C=C[C@]4(C)[C@@]3(F)[C@@H](O)C[C@]2(C)[C@@]1(O)C(=O)CO` [DEX, dexamethasone], the “optimal dose for prevention of neutropenia” value ([1]; CD-1 mice, DEX before carboplatin 360 mg/m^2) was 0.1 mg/kg, the “peripheral blood counts, effect of dexamethasone” value ([1]; mouse, in vivo) was “induction of transient granulocytosis and lymphopenia” and the “Responses: number of PD” value ([2]; Cohort 2 (n=8), Dex 8 mg bid) was 1. For the same molecule, the “Responses: number of PR” value ([2]; Cohort 2 (n=8), Dex 8 mg bid) was 7, the “platelet nadir ratio (course 2 ÷ course 1), M±SE” value ([2]; Cohort 2: Dex 8 mg bid) was 2.68±0.6 and the “AGC nadir ratio (course 2 ÷ course 1), M±SE” value ([2]; Cohort 2: Dex 8 mg bid) was 2.68±0.8. For the same molecule, the “Responses: number of PD” value ([2]; Cohort 3 (n=10), Dex 16 mg bid) was 1, the “Responses: number of PR” value ([2]; Cohort 3 (n=10), Dex 16 mg bid) was 8 and the “Responses: number of SD” value ([2]; Cohort 3 (n=10), Dex 16 mg bid) was 1. For the same molecule, the “platelet nadir ratio (course 2 ÷ course 1), M±SE” value ([2]; Cohort 3: Dex 16 mg bid) was 2.72±0.6, the “AGC nadir ratio (course 2 ÷ course 1), M±SE” value ([2]; Cohort 3: Dex 16 mg bid) was 2.94±0.7 and the “reduction of toxicity, data trends” value ([2]; Dex 16 mg) was “effective in reducing toxicity”. For the same molecule, the “Dex DLTs” value ([2]; NSCLC patients, Dex 8 or 16 mg bid) was “No Dex DLTs were observed”, the “increase of efficacy of carboplatin, gemcitabine or combination by DEX pretreatment” value ([3]; all xenograft models tested) was 2-4 fold and the “increase of anticancer effects of carboplatin by DEX pretreatment” value [4] was 70%. For the same molecule, the “increase of therapeutic effectiveness of carboplatin by DEX pretreatment” value [5] was 50%, the “increase of therapeutic effectiveness of gemcitabine by DEX pretreatment” value [5] was 60% and the “increase of therapeutic effect of carboplatin by DEX pretreatment” value [6] was “approximately 80%”. For the same molecule, the death ([7]; CD-1 mice, DEX alone s.c. 0.01-0.3 mg/mouse/day for 5 days) was “No death occurred”, the survival rate ([7]; CD-1 mice, DEX pretreatment 0.01 mg/mouse/day for 5 days) was 40% and the survival rate ([7]; CD-1 mice, DEX pretreatment s.c. 0.1 mg/mouse/day for 5 days) was 80%. The “mortality of treated animals” value ([7]; combination treatment with carboplatin and gemcitabine, DEX pretreatment) was “reduced the mortality of treated animals”, the “effect of DEX pretreatment on toxicity profiles of the two chemotherapeutic agents” value [8] was “no effect on toxicity profiles” and the “increase of therapeutic effectiveness of combination therapy of carboplatin and gemcitabine by DEX pretreatment” value [9] was 130%. For the same molecule, the “increase of efficacy of carboplatin by DEX pretreatment” value [10] was 66% and the “increase of efficacy of gemcitabine by DEX pretreatment” value [10] was 60%.
For `Nc1ccn([C@@H]2O[C@H](CO)[C@@H](O)C2(F)F)c(=O)n1` [gemcitabine], the death ([3]; nude mice, carboplatin 120 mg/kg, gemcitabine 160 mg/kg i.p.) was “no death occurred”, the AUC ([11]; bone marrow, DEX (+)) was 7.03 µg·h/mL and the CL ([11]; bone marrow, DEX (+)) was 22.76 mL/g/h. For the same molecule, the Cmax ([11]; bone marrow, DEX (+)) was 15.82 µg/mL, the Vss ([11]; bone marrow, DEX (+)) was 10.12 mL/g and the AUC ([11]; bone marrow, DEX (−)) was 18.35 µg·h/mL. It also gave a CL ([11]; bone marrow, DEX (−)) of 8.72 mL/g/h, a Cmax ([11]; bone marrow, DEX (−)) of 16.12 µg/mL and a Vss ([11]; bone marrow, DEX (−)) of 9.93 mL/g. The AUC ([11]; liver, DEX (+)) was 124.80 µg·h/mL, the CL ([11]; liver, DEX (+)) was 1.28 mL/g/h and the Cmax ([11]; liver, DEX (+)) was 166.94 µg/mL. The Vss ([11]; liver, DEX (+)) was 0.96 mL/g, the AUC ([11]; liver, DEX (−)) was 123.68 µg·h/mL and the CL ([11]; liver, DEX (−)) was 1.29 mL/g/h. For the same molecule, the Cmax ([11]; liver, DEX (−)) was 158.43 µg/mL, the Vss ([11]; liver, DEX (−)) was 1.01 mL/g and the AUC ([11]; plasma, DEX (+)) was 319.96 µg·h/mL. For the same molecule, the CL ([11]; plasma, DEX (+)) was 0.50 mL/g/h, the Cmax ([11]; plasma, DEX (+)) was 253.68 µg/mL and the Vss ([11]; plasma, DEX (+)) was 10.81 mL/g. It also gave an AUC ([11]; plasma, DEX (−)) of 552.32 µg·h/mL, a CL ([11]; plasma, DEX (−)) of 0.29 mL/g/h and a Cmax ([11]; plasma, DEX (−)) of 264.13 µg/mL. For the same molecule, the Vss ([11]; plasma, DEX (−)) was 16.64 mL/g, the AUC ([11]; spleen, DEX (+)) was 135.50 µg·h/mL and the CL ([11]; spleen, DEX (+)) was 1.18 mL/g/h. The Cmax ([11]; spleen, DEX (+)) was 193.29 µg/mL, the Vss ([11]; spleen, DEX (+)) was 0.83 mL/g and the AUC ([11]; spleen, DEX (−)) was 375.21 µg·h/mL. It also gave a CL ([11]; spleen, DEX (−)) of 0.43 mL/g/h, a Cmax ([11]; spleen, DEX (−)) of 196.84 µg/mL and a Vss ([11]; spleen, DEX (−)) of 0.81 mL/g. For the same molecule, the “increase in tumor AUC by DEX pretreatment” value ([12]; H1299 nude mice) was 60%, the AUC ([12]; bone marrow, DEX (+)) was 16.41 µg·h/mL and the CL ([12]; bone marrow, DEX (+)) was 9.75 mL/g/h. It also gave a Cmax ([12]; bone marrow, DEX (+)) of 14.36 µg/mL, a Vss ([12]; bone marrow, DEX (+)) of 11.14 mL/g and an AUC ([12]; bone marrow, DEX (−)) of 21.10 µg·h/mL. For the same molecule, the CL ([12]; bone marrow, DEX (−)) was 7.58 mL/g/h, the Cmax ([12]; bone marrow, DEX (−)) was 18.53 µg/mL and the Vss ([12]; bone marrow, DEX (−)) was 8.64 mL/g. It also gave an AUC ([12]; liver, DEX (+)) of 107.85 µg·h/mL, a CL ([12]; liver, DEX (+)) of 1.48 mL/g/h and a Cmax ([12]; liver, DEX (+)) of 157.46 µg/mL. The Vss ([12]; liver, DEX (+)) was 1.02 mL/g, the AUC ([12]; liver, DEX (−)) was 123.27 µg·h/mL and the CL ([12]; liver, DEX (−)) was 1.30 mL/g/h. The Cmax ([12]; liver, DEX (−)) was 171.80 µg/mL, the Vss ([12]; liver, DEX (−)) was 0.93 mL/g and the AUC ([12]; plasma, DEX (+)) was 322.43 µg·h/mL. The CL ([12]; plasma, DEX (+)) was 0.50 mL/g/h, the Cmax ([12]; plasma, DEX (+)) was 237.16 µg/mL and the Vss ([12]; plasma, DEX (+)) was 9.90 mL/g. For the same molecule, the AUC ([12]; plasma, DEX (−)) was 277.38 µg·h/mL, the CL ([12]; plasma, DEX (−)) was 0.58 mL/g/h and the Cmax ([12]; plasma, DEX (−)) was 286.72 µg/mL. For the same molecule, the Vss ([12]; plasma, DEX (−)) was 5.96 mL/g, the AUC ([12]; spleen, DEX (+)) was 505.40 µg·h/mL and the CL ([12]; spleen, DEX (+)) was 0.32 mL/g/h. For the same molecule, the Cmax ([12]; spleen, DEX (+)) was 179.42 µg/mL, the Vss ([12]; spleen, DEX (+)) was 0.89 mL/g and the AUC ([12]; spleen, DEX (−)) was 909.92 µg·h/mL. The CL ([12]; spleen, DEX (−)) was 0.18 mL/g/h, the Cmax ([12]; spleen, DEX (−)) was 221.99 µg/mL and the Vss ([12]; spleen, DEX (−)) was 0.72 mL/g. It also gave an AUC ([12]; tumor, DEX (+)) of 674.44 µg·h/mL, a CL ([12]; tumor, DEX (+)) of 0.23 mL/g/h and a Cmax ([12]; tumor, DEX (+)) of 46.66 µg/mL. The Vss ([12]; tumor, DEX (+)) was 12.72 mL/g, the AUC ([12]; tumor, DEX (−)) was 434.55 µg·h/mL and the CL ([12]; tumor, DEX (−)) was 0.37 mL/g/h. It also gave a Cmax ([12]; tumor, DEX (−)) of 49.15 µg/mL and a Vss ([12]; tumor, DEX (−)) of 9.01 mL/g.
